# Experimental data reported in US10301292B2, “Bicyclic compound” (Takeda Pharmaceutical Company Limited, priority 2014, dated 2019).
# Tests used:
# [1] = test system: HCT116 cells; test: Growth inhibitory activity on HCT116 cell (CellTiter-Glo); format: cell-based; details: table head: 10 μM (text b2498: 1 μM), 3 days incubation; for inhibition at 10 µM: Homo sapiens, HCT-116, 72 h, read-out: HCT116 cell proliferation inhibitory rate (%) at 10 μM
# Protocol: The growth inhibitory activity of the compound on HCT116 cell was evaluated by the following method.
# HCT116 cells were seeded in a 384 well blackplate at 900 cells/30 μL/well, and maintained in an RPMI medium (Wako)) containing an assay medium (2% fetal bovine serum, 50 Unit/mL penicillin, 50 μg/mL streptomycin (Invitrogen). The next day, a test compound dissolved in dimethyl sulfoxide (DMSO) was diluted with the assay medium, and the obtained compound solution was added by 10 μL to each well of a plate containing HCT116 cells and incubated at 37° C., 5% CO2 (test compound addition group).
# A similar reaction was performed without adding a test compound (test compound non-addition group).
# Furthermore, a similar reaction was performed under the conditions without adding HCT116 cell and a test compound (control group).
# After 3 days, 20 μL of a CellTiter-Glo reagent (Promega KK) was added to the well, and the mixture was stirred for 10 min. Thereafter, the luminescence value of each well was measured by the EnVision™ multilabel counter (Perkin Elmer Inc.).
# The HCT116 cell proliferation inhibitory rate (%) of the test compound was determined by the following calculation formula. (1−(luminescence of test compound addition group−luminescence of control group)÷(luminescence of test compound nonaddition group−luminescence of control group))×100
# [2] = biological target: T1, human ACC1 (Homo sapiens, UniProt Q13085); test: Measurement of ACC1 inhibitory activity (Malonyl-CoA production, RapidFire-mass spectrometry); format: biochemical; details: 10 μM of the test compound, recombinant human ACC1; for inhibition at 10 µM: read-out: ACC1 inhibitory rate (%) at 10 μM
# T1 construct: His tag (from vector pFAST-BacHTc; protein captured on Ni-NTA) (N); made in house; host or cells: SF-9 insect cells, recombinant baculovirus BAC-ACC1
# Protocol: (1) Cloning of Human ACC1 Gene and Preparation of Recombinant Baculovirus
# Human ACC1 gene was cloned by PCR using a human liver cDNA library (Clontech) as a template and Primer 1 and Primer 2 shown below. Primer 1 and Primer 2 were prepared by adding SalI, NotI restriction enzyme recognition sequences based on the information of the base sequence of human ACC1 gene (Genbank Accession U19822).
# PCR was performed using Pyrobest DNA polymerase (TAKARA BIO INC.). The obtained PCR product was cloned to pT7 Blue vector (Novagen) and after confirmation of the base sequence, digested with restriction enzymes SalI and XbaI. The obtained DNA fragment was inserted into pFAST-BacHTc (Invitrogen) digested with restriction enzymes SalI and XbaI to give expression plasmid ACC1/pFAST-BacHTc.
# Using the expression plasmid ACC1/pFAST-BacHTc and BAC-TO-BAC Baculovirus Expression System (Invitrogen), virus stock BAC-ACC1 of recombinant Baculovirus was prepared.
# (2) Preparation of ACC1 Protein
# SF-9 cells (Invitrogen) were inoculated to a medium (10 L) for insect cells (Sf-900IISFM medium (Invitrogen) containing 5% fetal bovine serum (Trace), 50 mg/L Gentamicin (Wako Pure Chemical Industries, Ltd.), 0.1% Pluronic F-68 (Invitrogen)) at 1.0×10^6 cells/mL, and cultured with shaking in Wave Bioreactor (GE Healthcare) at 27° C., 20 rpm, rocking angle 10°, oxygen concentration 30%.
# On day 2 of the culture, recombinant Baculovirus BAC-ACC1 was added, and the cells were cultured for 3 days. The culture medium was centrifuged at 4000×g for 10 min to give virus-infected cells. The cells were washed with phosphate buffered saline (Invitrogen) and centrifuged under the same conditions. The obtained cells were cryopreserved at −80° C.
# The cryopreserved cells were thawed in ice and suspended in 800 mL of 25 mM HEPES buffer (pH 7.5) containing 10% Glycerol, 0.3 M NaCl, 1 mM EDTA, 25 mM Sodium β-Glycerophosphate and 1 mM Sodium Orthovanadate, and supplemented with Complete Protease Inhibitor (Roche). The obtained suspension was homogenized two times in a polytron homogenizer (Kinematica) at 20,000 rpm for 20 sec. The obtained cell disruption solution was clarified by centrifugation at 186,000×g for 60 min and the supernatant was passed through Ni-NTA Superflow Cartridges (5 mL) (QUIAGEN). Furthermore, it was washed with 25 mM HEPES buffer (pH 7.5) containing 20 mM Imidazole, 0.3 M NaCl, and eluted with 25 mM HEPES buffer (pH 7.5) containing 250 mM Imidazol, 0.3 M NaCl. The eluate was concentrated by Amicon Ultra-15 (Nihon Millipore K.K.) having a fraction molecular weight of 50K. The obtained concentrate was subjected to gel filtration with 50 mM HEPES buffer (pH 7.5) containing 10 mM MgCl2, 2 mM dithiothreitol, 10 mM tripotassium citrate, 0.3 M NaCl by using HiLoad 26/60 Superdex200 prep grade gel filtration column (GE Healthcare) to give ACC1. The obtained ACC1 was cryopreserved at −80° C.
# (3) Measurement of ACC1 Inhibitory Activity
# ACC1 obtained in the above-mentioned (2) was diluted with an enzyme reaction buffer (50 mM HEPES (pH 7.5), 10 mM MgCl2, 10 mM Tripottasium Citrate, 2 mM Dithiothreitol, 0.001% Fatty acid free BSA) to a concentration of 0.2 μg/ml, and the mixture was added to each well of a 384 well assay plate by 10 μl. A test compound dissolved in dimethyl sulfoxide (DMSO) was diluted with an enzyme reaction buffer and the resulting solution (5 μl) was added to each well. The mixture was incubated at room temperature for 60 min. Then, a substrate solution (50 mM KHCO3, 200 μM ATP, 200 μM Acetyl-CoA, 5 μl) was added to each well, and the mixture was reacted at room temperature for 30 min. The reaction was quenched by adding a reaction quenching liquid (1.3% formic acid, 0.2 μM Malonyl-^13C3-CoA) by 60 μL each to the obtained reaction mixtures (test compound addition group).
# In addition, a reaction was performed in the same manner as above and without adding the test compound (test compound non-addition group). […]
compound,measurement,setting,value
"CC(=O)NC(C)c1ccc2cc(-c3ccc(Oc4cccc(OC[C@@H]5CC5(F)F)c4)nc3)oc2c1 (stereo partly drawn) [Example 68, N-(1-(2-(6-(3-(((1S)-2,2-difluorocyclopropyl)methoxy)phenoxy)pyridin-3-yl)-1-benzofuran-6-yl)ethyl)acetamide]",inhibition at 10 µM,[1],39%
same,inhibition at 10 µM,[2],100%
"CC(=O)NC(C)c1ccc2oc(-c3ccc(Oc4cccc(OCC5CC5)c4)nc3)nc2c1 (stereo not drawn) [Example 71, N-(1-(2-(6-(3-(cyclopropylmethoxy)phenoxy)pyridin-3-yl)-1,3-benzoxazol-5-yl)ethyl)acetamide]",inhibition at 10 µM,[1],41%
same,inhibition at 10 µM,[2],95%
"CC(=O)NC(C)c1ccc2sc(-c3ccc(Oc4cccc(OCC5CC5)c4)cc3)cc2c1 (stereo not drawn) [Example 73, N-(1-(2-(4-(3-(cyclopropylmethoxy)phenoxy)phenyl)-1-benzothiophen-5-yl)ethyl)acetamide]",inhibition at 10 µM,[1],28%
same,inhibition at 10 µM,[2],90%
"CC(=O)NC(C)c1ccc2sc(-c3ccc(Oc4cccc(OCC5CC5)c4)nc3)nc2c1 (stereo not drawn) [Example 75, N-(1-(2-(6-(3-(cyclopropylmethoxy)phenoxy)pyridin-3-yl)-1,3-benzothiazol-5-yl)ethyl)acetamide]",inhibition at 10 µM,[1],40%
same,inhibition at 10 µM,[2],94%
"CC(=O)NC(C)c1ccc2nc(-c3ccc(Oc4cccc(OC[C@@H]5CC5(F)F)c4)cn3)oc2c1 (stereo partly drawn) [Example 76, N-(1-(2-(5-(3-(((1S)-2,2-difluorocyclopropyl)methoxy)phenoxy)pyridin-2-yl)-1,3-benzoxazol-6-yl)ethyl)acetamide]",inhibition at 10 µM,[1],45%
same,inhibition at 10 µM,[2],99%
"CC(=O)NC(C)c1ccc2nc(-c3ccc(Oc4cccc(OC[C@@H]5CC5(F)F)c4)nc3)oc2c1 (stereo partly drawn) [Example 80, N-(1-(2-(6-(3-(((1S)-2,2-difluorocyclopropyl)methoxy)phenoxy)pyridin-3-yl)-1,3-benzoxazol-6-yl)ethyl)acetamide]",inhibition at 10 µM,[1],33%
same,inhibition at 10 µM,[2],100%
"CC(=O)NC(C)c1ccc2nc(-c3ccc(Oc4cc(OCC5CC5)ccn4)cc3)oc2c1 (stereo not drawn) [Example 82, N-(1-(2-(4-((4-(cyclopropylmethoxy)pyridin-2-yl)oxy)phenyl)-1,3-benzoxazol-6-yl)ethyl)acetamide]",inhibition at 10 µM,[1],40%
same,inhibition at 10 µM,[2],98%
"CC(=O)NC(C)c1ccc2cc(-c3ccc(Oc4cccc(OCC5CC5)c4)cc3)nn2c1 (stereo not drawn) [Example 86, N-(1-(2-(4-(3-(cyclopropylmethoxy)phenoxy)phenyl)pyrazolo[1,5-a]pyridin-6-yl)ethyl)acetamide]",inhibition at 10 µM,[1],34%
same,inhibition at 10 µM,[2],95%
"CC(=O)NC(C)c1ccc2nc(-c3ccc(Oc4cccc(OCC5CC5)c4)cc3)oc2c1F (stereo not drawn) [Example 90, N-(1-(2-(4-(3-(cyclopropylmethoxy)phenoxy)phenyl)-7-fluoro-1,3-benzoxazol-6-yl)ethyl)acetamide]",inhibition at 10 µM,[1],22%
same,inhibition at 10 µM,[2],101%
"CC(=O)NC(C)C1CCc2nc(-c3ccc(Oc4cccc(OCC5CC5)c4)cc3)oc2C1 (stereo not drawn) [Example 95, N-(1-(2-(4-(3-(cyclopropylmethoxy)phenoxy)phenyl)-4,5,6,7-tetrahydro-1,3-benzoxazol-6-yl)ethyl)acetamide]",inhibition at 10 µM,[1],11%
same,inhibition at 10 µM,[2],97%
"CC(=O)NC(C)C1CCc2nc(-c3ccc(Oc4cccc(OCC5CC5)c4)cc3)oc2C1 (stereo not drawn) [Example 95b, N-(1-(2-(4-(3-(cyclopropylmethoxy)phenoxy)phenyl)-4,5,6,7-tetrahydro-1,3-benzoxazol-6-yl)ethyl)acetamide]",HCT116 cell proliferation inhibitory rate (%) at 10 μM,[1],20%
same,ACC1 inhibitory rate (%) at 10 μM,[2]; 10 µM,96%
"CC(=O)NC(C)c1ccc2nc(-c3ccc(Oc4cccc(OCC5CC5)c4)nn3)oc2c1 (stereo not drawn) [Example 96, N-(1-(2-(6-(3-(cyclopropylmethoxy)phenoxy)pyridazin-3-yl)-1,3-benzoxazol-6-yl)ethyl)acetamide]",inhibition at 10 µM,[1],23%
same,inhibition at 10 µM,[2],100%
